In assay [1] the test system is T-cell. The assay is described as follows: Inhibition of T-cell proliferation. The format is functional. The following applies: read-out: ED50 (the source's name).
The target of assay [2] is Peptidyl-prolyl cis-trans isomerase A (Homo sapiens, UniProt P62937). Kind of assay: Inhibition of cyclophilin A rotamase.

From ChEMBL document CHEMBL1137192, “Synthesis and neurotrophic activity of nonimmunosuppressant cyclosporin A derivatives” (Bioorg Med Chem Lett, 2004) come the findings set out here.

Peptidyl-prolyl cis-trans isomerase A, sequence (P62937 whole entry): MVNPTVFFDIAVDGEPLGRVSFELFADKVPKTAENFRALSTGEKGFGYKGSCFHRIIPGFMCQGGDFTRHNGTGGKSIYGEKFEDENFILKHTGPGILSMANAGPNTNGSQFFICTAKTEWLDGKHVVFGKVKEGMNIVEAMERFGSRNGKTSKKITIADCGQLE

As to `C=C1NC(=O)[C@H](C)NC(=O)[C@H](CC(C)C)N(C)C(=O)[C@H](C(C)C)NC(=O)[C@H](CC(C)C)N(C)C(=O)CN(C)C(=O)[C@H](CC)NC(=O)[C@H]([C@H](O)[C@H](C)C/C=C/C)N(C)C(=O)[C@H](C(C)C)N(C)C(=O)[C@H](CC(C)C)N(C)C(=O)[C@H](CC(C)C)N(C)C1=O`, in assay [1], the EC50 was greater than 10 µM.
Still for that read-out and setting: next, `C/C=C/C[C@@H](C)[C@@H](O)[C@H]1C(=O)N[C@@H](CC)C(=O)N(C)CC(=O)N(C)[C@@H](CC)C(=O)N[C@@H](C(C)C)C(=O)N(C)[C@@H](CC(C)C)C(=O)N[C@@H](C)C(=O)N[C@H](C)C(=O)N(C)[C@@H](CC(C)C)C(=O)N(C)[C@@H](CC(C)C)C(=O)N(C)[C@@H](C(C)C)C(=O)N1C`: greater than 10 µM; `CCCC[C@@H](C)[C@@H](O)[C@H]1C(=O)N[C@@H](CC)C(=O)N(C)CC(=O)N(C)[C@@H](CC(C)C)C(=O)N[C@@H](C(C)C)C(=O)N(C)[C@@H](CC(C)C)C(=O)N[C@@H](C)C(=O)N[C@H](C)C(=O)N(C)[C@@H](CC(C)C)C(=O)N(C)[C@@H](CC(C)C)C(=O)N(C)[C@@H](C(C)C)C(=O)N1C`: 0.13 µM.
As usually defined, the Ki is a dissociation constant, usually derived from enzyme kinetics or from competition with a known ligand. A low value points to higher affinity. `C/C=C/C[C@@H](C)C(O)[C@H]1C(=O)N[C@@H](CC)C(=O)N(C)CC(=O)N(C)[C@H](CC(C)C)C(=O)N[C@](C)(C(C)O)C(=O)N(C)[C@@H](CC(C)C)C(=O)N[C@@H](C)C(=O)N[C@H](C)C(=O)N(C)[C@H](CC(C)C)C(=O)N(C)[C@@H](CC(C)C)C(=O)N(C)[C@@H](C(C)C)C(=O)N1C` (stereo not given in full): the EC50 in assay [1] was greater than 10 µM. Moreover, in assay [2], the Ki was 18 nM.
